According to US20240317866A1, “Use of Anti-EGFR/Anti-Met Antibody to Treat Gastric or Esophageal Cancer” (Janssen Biotech, Inc., priority 2022, published 2024):

Tested on: gastric cancer (GC, including GEJ cancer) expressing EGFR and/or cMet
Assay: Phase 2a study of amivantamab monotherapy, gastric cancer cohort: response by RECIST Version 1.1, investigator judgement
Assay type: in vivo, human
Description: Approximately 30 participants with any expression level of EGFR, cMet, or both proteins are enrolled in each of the Phase 2a cohort. However, based on the priorexperiences investigating anti-EGFR andanti-cMet antibodies in gastroesophageal cancers, at least 20 participants expressing IHC 2+ or higher (defined as participants expressing EGFR IHC 2+ or above and/or cMet IHC 2+ or above) are enrolled. Additional enrollment in Phase 2a cohorts may be allowed to achieve this minimal enrollment.
This is an open-label, multicenter, multi-arm Phase 2 interventional study in participants with previously treated advanced or unresectable GC or EC who are 20 years or older (or the legal age of consent in the jurisdiction in which the study is taking place). Japanese participants with gastric/GEJ or EC who express varying degrees of EGFR, cMet, or both as determined by IHC locally or centrally are enrolled in the GC cohort or EC cohort.
The baseline disease assessments are performed as close as possible to the start of treatment, but no more than 28 days prior to the first dose. Subsequent assessments are performed at 6 weeks (+1 week) after initiation of study treatment administration, then every 6 weeks (±1 week) for the first 12 months and then every 12 weeks (±1 week) until objective radiographic disease progression. Timing for each disease assessment is relative to the first dose of study treatment administration, regardless of dose modifications, and continues until disease progression. Any other site at which new disease is suspected is also imaged.
For purposes of analysis, the following populations are defined: • (1) All Treated population: All participants who take at least 1 dose of study treatment; • (2) Response evaluable population: All participants who satisfy the following criteria: • Receive at least 1 dose of study treatment; • At least 2 post-baseline efficacy disease assessments, or discontinued treatment for any reason, or have disease progression/death prior to the second post-baseline disease assessment; • (3) Safety population: All participants who take at least 1 dose of study treatment; • (4) Pharmacokinetics population: All participants who receive at least 1 dose of study treatment and have at least 1 evaluable post-baseline measurement; • (5) Immunogenicity population: All participants who receive at least 1 dose of study treatment and have at least 1 evaluable post-baseline measurement.
The primary efficacy measure is ORR. Objective response rate is defined as the proportion of participants who achieve either CR or PR, determined by investigator assessment using RECIST Version 1.1. Confirmation of investigator-assessed ORR may be performed through IRC in the Phase 2b.
Disease Control Rate: Disease control rate is defined as the percentage of participants achieving complete or partial response or stable disease for at least 6 weeks as defined by RECIST Version1.1. The DCR and its 95% CI with Clopper-Pearson method are also calculated.
Next, response to treatment was evaluated. The “All Treated” patient population were patients who received at least 1 dose of study treatment.

[1] = all treated population, IHC 1+, N=5, 1,050/1,400 mg IV
[2] = all treated population, IHC 1+, N=5, 1,050/1,400 mg IV, number of participants
[3] = all treated population, IHC 2+, N=11, 1,050/1,400 mg IV
[4] = all treated population, IHC 2+, N=11, 1,050/1,400 mg IV, number of participants
[5] = all treated population, IHC 3+, N=9, 1,050/1,400 mg IV
[6] = all treated population, IHC 3+, N=9, 1,050/1,400 mg IV, number of participants
[7] = all treated population, IHC NA, N=4, 1,050/1,400 mg IV
[8] = all treated population, IHC NA, N=4, 1,050/1,400 mg IV, number of participants
[9] = all treated population, Total, N=29, 1,050/1,400 mg IV
[10] = all treated population, Total, N=29, 1,050/1,400 mg IV, number of participants
[11] = response evaluable population, IHC 1+, N=4, 1,050/1,400 mg IV
[12] = response evaluable population, IHC 1+, N=4, 1,050/1,400 mg IV, number of participants
[13] = response evaluable population, IHC 2+, N=11, 1,050/1,400 mg IV
[14] = response evaluable population, IHC 2+, N=11, 1,050/1,400 mg IV, number of participants
[15] = response evaluable population, IHC 3+, N=9, 1,050/1,400 mg IV
[16] = response evaluable population, IHC 3+, N=9, 1,050/1,400 mg IV, number of participants
[17] = response evaluable population, Total, N=24, 1,050/1,400 mg IV
[18] = response evaluable population, Total, N=24, 1,050/1,400 mg IV, number of participants

For amivantamab, the “Disease control rate (CR + PR + SD)” value [1] was “(20.0%)”, the “Not Evaluable (NE)” value [1] was “(40.0%)” and the “Progressive Disease (PD)” value [1] was “(40.0%)”. For the same substance, the “Complete response (CR)” value [2] was 0, the “Disease control rate (CR + PR + SD)” value [2] was 1 and the “Not Evaluable (NE)” value [2] was 2. The “Objective response rate (CR + PR)” value [2] was 0, the “Partial response (PR)” value [2] was 0 and the “Progressive Disease (PD)” value [2] was 2. For the same substance, the “Disease control rate (CR + PR + SD)” value [3] was “(9.1%)”, the “Not Evaluable (NE)” value [3] was “(9.1%)” and the “Progressive Disease (PD)” value [3] was “(81.8%)”. The “Complete response (CR)” value [4] was 0, the “Disease control rate (CR + PR + SD)” value [4] was 1 and the “Not Evaluable (NE)” value [4] was 1. For the same substance, the “Objective response rate (CR + PR)” value [4] was 0, the “Partial response (PR)” value [4] was 0 and the “Progressive Disease (PD)” value [4] was 9. The “Disease control rate (CR + PR + SD)” value [5] was “(44.4%)”, the “Objective response rate (CR + PR)” value [5] was “(11.1%)” and the “Partial response (PR)” value [5] was “(11.1%)”. For the same substance, the “Progressive Disease (PD)” value [5] was “(55.6%)”, the “Complete response (CR)” value [6] was 0 and the “Disease control rate (CR + PR + SD)” value [6] was 4. The “Not Evaluable (NE)” value [6] was 0, the “Objective response rate (CR + PR)” value [6] was 1 and the “Partial response (PR)” value [6] was 1. The “Progressive Disease (PD)” value [6] was 5, the “Disease control rate (CR + PR + SD)” value [7] was “(25.0%)” and the “Progressive Disease (PD)” value [7] was “(75.0%)”. The “Complete response (CR)” value [8] was 0, the “Disease control rate (CR + PR + SD)” value [8] was 1 and the “Not Evaluable (NE)” value [8] was 0. For the same substance, the “Objective response rate (CR + PR)” value [8] was 0, the “Partial response (PR)” value [8] was 0 and the “Progressive Disease (PD)” value [8] was 3. The “Disease control rate (CR + PR + SD)” value [9] was “(24.1%)”, the “Not Evaluable (NE)” value [9] was “(10.3%)” and the “Objective response rate (CR + PR)” value [9] was “(3.4%)”. For the same substance, the “Partial response (PR)” value [9] was “(3.4%)”, the “Progressive Disease (PD)” value [9] was “(65.5%)” and the “Complete response (CR)” value [10] was 0. The “Disease control rate (CR + PR + SD)” value [10] was 7, the “Not Evaluable (NE)” value [10] was 3 and the “Objective response rate (CR + PR)” value [10] was 1. For the same substance, the “Partial response (PR)” value [10] was 1, the “Progressive Disease (PD)” value [10] was 19 and the “Disease control rate (CR + PR + SD)” value [11] was “(25.0%)”. The “Not Evaluable (NE)” value [11] was “(25.0%)”, the “Progressive Disease (PD)” value [11] was “(50.0%)” and the “Complete response (CR)” value [12] was 0. For the same substance, the “Disease control rate (CR + PR + SD)” value [12] was 1, the “Not Evaluable (NE)” value [12] was 1 and the “Objective response rate (CR + PR)” value [12] was 0. For the same substance, the “Partial response (PR)” value [12] was 0, the “Progressive Disease (PD)” value [12] was 2 and the “Disease control rate (CR + PR + SD)” value [13] was “(9.1%)”. The “Not Evaluable (NE)” value [13] was “(9.1%)”, the “Progressive Disease (PD)” value [13] was “(81.8%)” and the “Complete response (CR)” value [14] was 0. For the same substance, the “Disease control rate (CR + PR + SD)” value [14] was 1, the “Not Evaluable (NE)” value [14] was 1 and the “Objective response rate (CR + PR)” value [14] was 0. For the same substance, the “Partial response (PR)” value [14] was 0, the “Progressive Disease (PD)” value [14] was 9 and the “Disease control rate (CR + PR + SD)” value [15] was “(44.4%)”. For the same substance, the “Objective response rate (CR + PR)” value [15] was “(11.1%)”, the “Partial response (PR)” value [15] was “(11.1%)” and the “Progressive Disease (PD)” value [15] was “(55.6%)”. For the same substance, the “Complete response (CR)” value [16] was 0, the “Disease control rate (CR + PR + SD)” value [16] was 4 and the “Not Evaluable (NE)” value [16] was 0. The “Objective response rate (CR + PR)” value [16] was 1, the “Partial response (PR)” value [16] was 1 and the “Progressive Disease (PD)” value [16] was 5. For the same substance, the “Not Evaluable (NE)” value [17] was “(8.3%)”, the “Objective response rate (CR + PR)” value [17] was “(4.2%)” and the “Partial response (PR)” value [17] was “(4.2%)”. For the same substance, the “Progressive Disease (PD)” value [17] was “(66.7%)”, the “Complete response (CR)” value [18] was 0 and the “Disease control rate (CR + PR + SD)” value [18] was 6. For the same substance, the “Not Evaluable (NE)” value [18] was 2, the “Objective response rate (CR + PR)” value [18] was 1 and the “Partial response (PR)” value [18] was 1. For the same substance, the “Progressive Disease (PD)” value [18] was 16.
